ChEMBL document CHEMBL1201862, “PubChem BioAssay data set” (2004)
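Tested at 5 concentrations; 48 h exposure; 96-well plates; endpoints linearly interpolated, else capped at highest concentration. Here, GI50 denotes the concentration required for 50% inhibition of growth.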 Calls of active or inactive are those of the source. Rule as the data show it: active = GI50 up to about 1.1 µM and inactive = higher.

How the values were obtained:
Assay in all cases: NCI tumour cell line growth inhibition, 48 h
CAKI-1 = tested on: CAKI-1
COLO 205 = tested on: COLO 205
DMS-114 = tested on: DMS-114
HCT-116 = tested on: HCT-116
HCT-15 = tested on: HCT-15
HL-60 = tested on: HL-60
HT-29 = tested on: HT-29
KM12 = tested on: KM12
LOX IMVI = tested on: LOX IMVI
M14 = tested on: M14
MOLT-4 = tested on: MOLT-4
Malme-3M = tested on: Malme-3M
NCI-H460 = tested on: NCI-H460
OVCAR-4 = tested on: OVCAR-4
SF-295 = tested on: SF-295
SK-MEL-28 = tested on: SK-MEL-28
SK-OV-3 = tested on: SK-OV-3
SN12C = tested on: SN12C
SNB-75 = tested on: SNB-75
UACC-62 = tested on: UACC-62

Row | SMILES | GI50 (CAKI-1) | GI50 (COLO 205) | GI50 (DMS-114) | GI50 (HCT-116) | GI50 (HCT-15) [µM] | GI50 (HL-60) | GI50 (HT-29) | GI50 (KM12) | GI50 (LOX IMVI) | GI50 (M14) | GI50 (MOLT-4) | GI50 (Malme-3M) | GI50 (NCI-H460) | GI50 (OVCAR-4) | GI50 (SF-295) | GI50 (SK-MEL-28) | GI50 (SK-OV-3) | GI50 (SN12C) | GI50 (SNB-75) | GI50 (UACC-62)
1 | Cn1c(=O)n(CC2CS2)c2ccccc21 (stereo unspecified) | 44.5 µM (inactive) | > 100 µM (inactive) | 50.9 µM (inactive) | > 100 µM (inactive) | > 100 | 71.6 µM (inactive) | > 100 µM (inactive) | > 100 µM (inactive) | > 100 µM (inactive) | > 100 µM (inactive) | 88.1 µM (inactive) | > 100 µM (inactive) | > 100 µM (inactive) | > 100 µM (inactive) | > 100 µM (inactive) | > 100 µM (inactive) | > 100 µM (inactive) | > 100 µM (inactive) | > 100 µM (inactive) | > 100 µM (inactive)
2 | CC(C)(C)[Si](C)(C)OCC1OC(n2cnc3c(N)ncnc32)C2OC(=S)OC12 (stereo unspecified) | 41.3 µM (inactive) | 35.6 µM (inactive) | – | 27.4 µM (inactive) | 26.2 | > 100 µM (inactive) | 29.4 µM (inactive) | 35 µM (inactive) | 28.7 µM (inactive) | 45.5 µM (inactive) | 16.1 µM (inactive) | 23.6 µM (inactive) | 32.7 µM (inactive) | 81.3 µM (inactive) | 37.4 µM (inactive) | 38.4 µM (inactive) | 19.5 µM (inactive) | 35.5 µM (inactive) | 29.3 µM (inactive) | 23.8 µM (inactive)
3 | CCCOP(=O)(OCCC)OC(C(F)(F)F)C(F)(F)F | – | – | – | > 100 µM (inactive) | > 100 | > 100 µM (inactive) | > 100 µM (inactive) | > 100 µM (inactive) | > 100 µM (inactive) | > 100 µM (inactive) | > 100 µM (inactive) | > 100 µM (inactive) | > 100 µM (inactive) | – | – | > 100 µM (inactive) | > 100 µM (inactive) | > 100 µM (inactive) | > 100 µM (inactive) | > 100 µM (inactive)
4 | CN1Cc2cc(O)c(O)cc2C(O)C1 (stereo unspecified) | > 100 µM (inactive) | > 100 µM (inactive) | – | > 100 µM (inactive) | – | 38.3 µM (inactive) | > 100 µM (inactive) | > 100 µM (inactive) | 69.2 µM (inactive) | > 100 µM (inactive) | > 100 µM (inactive) | > 100 µM (inactive) | > 100 µM (inactive) | > 100 µM (inactive) | > 100 µM (inactive) | > 100 µM (inactive) | > 100 µM (inactive) | > 100 µM (inactive) | > 100 µM (inactive) | > 100 µM (inactive)
5 | O=C(c1ccccc1)[C@H]1Nc2ccc(Cl)cc2[C@H]2OCCC[C@@H]12 | 23 µM (inactive) | 21.5 µM (inactive) | 14.2 µM (inactive) | 16.3 µM (inactive) | 23.1 | – | 18.5 µM (inactive) | 19 µM (inactive) | 16.7 µM (inactive) | 17.5 µM (inactive) | 16.8 µM (inactive) | 25.6 µM (inactive) | 18 µM (inactive) | 20.7 µM (inactive) | 17 µM (inactive) | 18.2 µM (inactive) | – | 19.7 µM (inactive) | – | 17.8 µM (inactive)
6 | COc1cc(C2C3=C(CCC3=O)Oc3cc4c(cc32)OCO4)cc(OC)c1OC (stereo unspecified) | 0.222 µM (active) | 0.336 µM (active) | 0.218 µM (active) | 0.391 µM (active) | 0.256 | 0.204 µM (active) | 0.279 µM (active) | – | 0.491 µM (active) | 0.349 µM (active) | – | 1.44 µM (inactive) | 0.358 µM (active) | 10 µM (inactive) | 0.109 µM (active) | 0.429 µM (active) | 0.28 µM (active) | 0.593 µM (active) | 0.038 µM (active) | 0.141 µM (active)
7 | O=C(Nc1ccccc1)C(=O)C(C(=O)c1ccccc1F)C1OC(=O)c2ccccc21 (stereo unspecified) | 55.6 µM (inactive) | 22.4 µM (inactive) | 20.9 µM (inactive) | 18.9 µM (inactive) | 22.9 | 24.4 µM (inactive) | 37.9 µM (inactive) | 26.9 µM (inactive) | 27.2 µM (inactive) | 44 µM (inactive) | 28.4 µM (inactive) | – | 37.7 µM (inactive) | 31.6 µM (inactive) | 47.1 µM (inactive) | 40.6 µM (inactive) | 49 µM (inactive) | 37.1 µM (inactive) | 21.1 µM (inactive) | 23.5 µM (inactive)
